Laboratory results from US7671028B2, “Peptides that antagonize FPR class receptor mediated signaling” (POSTECH Foundation, priority 2004, dated 2010).
Where a SMILES comes first, the peptide text is derived from it. Where no end group is shown, it is not given here. [ ]: non-standard residue; d: D form.

Legend:
human neutrophils = assay: Superoxide generation in human neutrophils (cytochrome c reduction); format: cell-based; settings: agonist alone, concentration-dependent
Method: FIGS. 7A-7D show effects of WRW^4 (SEQ ID NO:4) on the Aβ42-induced superoxide generation and chemotaxis in human neutrophils. […] Cytochrome c reduction was monitored, as described in EXAMPLES. The results shown are representative of four independent experiments (A, B). Chemotaxis assays were performed using a modified Boyden chamber assay, as described in EXAMPLES. […] The data are presented as mean±SE of three independent experiments each performed in duplicate (C, D).
Superoxide anion generation was determined by measuring cytochrome c reduction using a microtiter 96 well plate ELISA reader (Bio-Tekinstruments, EL312e, Winooski, Vt.) as previously described (23). Human neutrophils (1×10^6 cells/100 μl of RPMI 1640 medium per well of a 96-well plate) were preincubated with 50 μM cytochrome c at 37° C. for 1 min and then incubated with the indicated concentrations of peptides. Superoxide generation was determined for the change in light absorption at 550 nm over 5 minutes at 1 min intervals.
Superoxide generation is one of the important functions of phagocytic leukocytes like neutrophils (28).

FPRL1 = target: T1, FPRL1 (Homo sapiens, UniProt P25090); assay: WKYMVm-induced [Ca2+]i increase in FPRL1-expressing RBL-2H3 cells (fura-2); format: cell-based; settings: inhibition of FPRL1 agonist-induced intracellular calcium increase; peptide added before agonist
T1 construct: expressed in transfected cells; host or cells: RBL-2H3 (rat basophilic leukaemia) cells
T1 sequence (P25090 1-351): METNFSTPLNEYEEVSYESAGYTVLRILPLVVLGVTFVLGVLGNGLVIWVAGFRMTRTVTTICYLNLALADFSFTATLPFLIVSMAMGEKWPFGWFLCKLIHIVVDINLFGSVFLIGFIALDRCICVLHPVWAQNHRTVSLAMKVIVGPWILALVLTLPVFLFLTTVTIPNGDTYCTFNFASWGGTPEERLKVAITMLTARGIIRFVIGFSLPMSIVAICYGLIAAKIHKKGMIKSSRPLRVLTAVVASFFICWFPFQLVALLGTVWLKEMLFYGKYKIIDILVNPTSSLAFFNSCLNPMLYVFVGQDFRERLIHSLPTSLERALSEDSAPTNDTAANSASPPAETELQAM
Method: FIGS. 3A-3B show effects of WRW^4 (SEQ ID NO:4) on the WKYMVm (SEQ ID NO:3)-induced [Ca^2+]i rise in FPRL1 expressing RBL-2H3 cells. Fura-2-loaded FPRL1-expressing RBL-2H3 cells were stimulated with vehicle or WRW^4 (SEQ ID NO:4) (10 μM) and then with WKYMVm (SEQ ID NO:3) (10 nM); or FPRL1-expressing RBL-2H3 cells were sensitized with DNP-specific IgE, loaded with fura-2, and activated with the antigen DNP-HSA (1 μg/ml). The changes in 340 nm/380 nm were monitored. The results are representative of three independent experiments (A). Cells were stimulated with various concentrations of WRW^4 (SEQ ID NO:4) prior to adding 10 nM of WKYMVm (SEQ ID NO:3) or 1 μg/ml of DNP-HSA. Peak levels of [Ca^2+]i increase were monitored. The results shown are the means±SE of four independent experiments (B).
Intracellular calcium concentration ([Ca^2+]i) levels were determined by Grynkiewicz's method using fura-2/AM (25). Briefly, prepared cells were incubated with 3 μM fura-2/AM at 37° C. for 50 min in fresh serum free RPMI 1640 medium with continuous stirring. For DNP-HSA stimulation, RBL-2H3 cells were sensitized with 1 μg/ml mouse DNP-specific IgE overnight prior to fura-2 loading (26), and 2×10^6 cells were aliquoted for each assay in Ca^2+ free Locke's solution (154 mM NaCl, 5.6 mM KCl, 1.2 mM MgCl2, 5 mM HEPES, pH 7.3, 10 mM glucose, and 0.2 mM EGTA). The fluorescence changes at excitation wavelengths of 340 nm and 380 nm and a common emission wavelength of 500 nm were measured, and the calibrated fluorescence ratio was converted to [Ca^2+]i.
The stimulation of FPRL1 by WKYMVm (SEQ ID NO:3) elicited a [Ca^2+]i increase in FPRL1-expressing RBL-2H3 cells (FIG. 3A). To investigate whether the inventive peptides inhibited WKYMVm (SEQ ID NO:3)-induced [Ca^2+]i increase, we stimulated fura-2 loaded FPRL1-expressing RBL-2H3 cells with various concentrations of WRW^4 (SEQ ID NO:4), and subsequently stimulated with effective concentration of WKYMVm (SEQ ID NO:3). […] To confirm specific inhibition by WRW^4 (SEQ ID NO:4) on FPRL1-induced signaling, we examined the effect of WRW^4 (SEQ ID NO:4) on another extracellular signal-induced [Ca^2+]i increase. FcεRI cross-linking has been reported to induce a [Ca^2+]i increase in RBL-2H3 cells (26). Stimulation of FPRL1-expressing RBL-2H3 cells (sensitized with 1 μg/ml mouse DNP-specific IgE) with 1 μg/ml DNP-HSA caused a dramatic increase in [Ca^2+]i (FIG. 3A).
Methods and principles of assaying for the effects of a set of diverse peptides on the intracellular concentration of calcium when the peptides are contacted with the cells bearing FPRL1 before the FPRL1 agonist is added is described in Example 1.5 above, and further details of initial experimentation using the peptides is described in Example 2.2.

Row | Molecule | IC50 (FPRL1) | peptide concentration of maximal superoxide generating effect (human neutrophils)
1 | Aβ42: amyloid β42 peptide, cleavage fragment of amyloid precursor protein, endogenous ligand for FPRL1 |  | 40 µM
2 | WWWWWW-NH2 [SEQ ID NO:31] | > 10 µM | 
3 | WRRWWW-NH2 [SEQ ID NO:33] | > 10 µM | 
4 | N=C(N)NCCC[C@H](NC(=O)[C@@H](N)Cc1c[nH]c2ccccc12)C(=O)N[C@@H](Cc1c[nH]c2ccccc12)C(N)=O [SEQ ID NO:7] (H-Trp-Arg-Trp-NH2) | > 10 µM | 
5 | NC(=O)[C@@H](Cc1c[nH]c2ccccc12)NC(=O)[C@H](Cc1c[nH]c2ccccc12)NC(=O)[C@H](Cc1c[nH]c2ccccc12)NC(=O)[C@H](Cc1c[nH]c2ccccc12)NC(=O)[C@H](Cc1c[nH]c2ccccc12)NC(=O)[C@@H](N)Cc1c[nH]c2ccccc12 [SEQ ID NO:32] (H-WWWWW[dW]-NH2) | > 10 µM | 
6 | H-WRWWWW-NH2 [SEQ ID NO:4, Trp-Arg-Trp-Trp-Trp-Trp-CONH2] | 1 ± 0.21 µM | 

Second part, led by results:

Row | IC50 (FPRL1) | Molecule | peptide concentration of maximal superoxide generating effect (human neutrophils)
7 | 0.0082 ± 0.0006 µM | CSCC[C@H](NC(=O)[C@H](Cc1c[nH]c2ccccc12)NC(=O)[C@H](Cc1c[nH]c2ccccc12)NC(=O)[C@H](CCCNC(=N)N)NC(=O)[C@H](Cc1c[nH]c2ccccc12)NC(=O)[C@H](N)Cc1c[nH]c2ccccc12)C(N)=O [wWRWWM] (H-[dW]WRWWM-NH2) | 
8 | > 10 µM | NC(=O)[C@@H](Cc1c[nH]c2ccccc12)NC(=O)[C@H](Cc1c[nH]c2ccccc12)NC(=O)[C@H](Cc1c[nH]c2ccccc12)NC(=O)[C@@H](N)Cc1c[nH]c2ccccc12 [SEQ ID NO:35] (H-WWW[dW]-NH2) | 
9 | > 10 µM | N=C(N)NCCC[C@H](NC(=O)[C@@H](N)Cc1c[nH]c2ccccc12)C(=O)N[C@@H](Cc1c[nH]c2ccccc12)C(=O)N[C@@H](Cc1c[nH]c2ccccc12)C(N)=O [SEQ ID NO:34] (H-WRWW-NH2) | 
10 | > 10 µM | N=C(N)NCCC[C@H](N)C(=O)N[C@@H](Cc1c[nH]c2ccccc12)C(=O)N[C@@H](Cc1c[nH]c2ccccc12)C(=O)N[C@H](Cc1c[nH]c2ccccc12)C(N)=O [SEQ ID NO:36] (H-RWW[dW]-NH2) | 
